Reference: patent US5192672A, “Method for oxidizing hydrocarbons with a hydroxylase from a methane monooxygenase” (Amoco Corporation, priority 1991, dated 1993)
Values after ≈ are worked out from the molar mass of the structure shown. One block for each molecule: values may come before it.

Assays:
[1] = biological target: T1, hydroxylase of methane monooxygenase (Methylosinus trichosporium, UniProt P27353); assay: Multiple turnover oxidation of hydrocarbon substrates using hydrogen peroxide; format: biochemical, Methylosinus trichosporium OB3b; details: H2O2 coupled
T1 construct: The novel high activity hydroxylase of the present invention was obtained from Methylosinus trichosporium OB3b; endogenous in cells; host or cells: Methylosinus trichosporium OB3b; hydroxylase purified from the bacteria
T1 sequence (P27353 1-526): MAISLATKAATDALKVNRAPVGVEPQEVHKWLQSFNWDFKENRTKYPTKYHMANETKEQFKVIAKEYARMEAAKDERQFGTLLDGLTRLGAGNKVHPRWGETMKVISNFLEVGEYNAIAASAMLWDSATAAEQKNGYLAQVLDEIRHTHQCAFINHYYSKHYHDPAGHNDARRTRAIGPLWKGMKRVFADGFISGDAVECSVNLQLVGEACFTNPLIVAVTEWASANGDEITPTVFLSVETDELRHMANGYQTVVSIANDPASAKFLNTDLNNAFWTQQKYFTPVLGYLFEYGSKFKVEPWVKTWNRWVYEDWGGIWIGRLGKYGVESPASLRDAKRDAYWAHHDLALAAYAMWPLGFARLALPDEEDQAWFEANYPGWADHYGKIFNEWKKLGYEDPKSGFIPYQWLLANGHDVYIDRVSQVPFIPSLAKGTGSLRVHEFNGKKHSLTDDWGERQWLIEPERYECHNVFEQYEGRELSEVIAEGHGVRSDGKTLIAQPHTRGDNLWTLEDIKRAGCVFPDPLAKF
T1 sequence (P27354 1-394 partner): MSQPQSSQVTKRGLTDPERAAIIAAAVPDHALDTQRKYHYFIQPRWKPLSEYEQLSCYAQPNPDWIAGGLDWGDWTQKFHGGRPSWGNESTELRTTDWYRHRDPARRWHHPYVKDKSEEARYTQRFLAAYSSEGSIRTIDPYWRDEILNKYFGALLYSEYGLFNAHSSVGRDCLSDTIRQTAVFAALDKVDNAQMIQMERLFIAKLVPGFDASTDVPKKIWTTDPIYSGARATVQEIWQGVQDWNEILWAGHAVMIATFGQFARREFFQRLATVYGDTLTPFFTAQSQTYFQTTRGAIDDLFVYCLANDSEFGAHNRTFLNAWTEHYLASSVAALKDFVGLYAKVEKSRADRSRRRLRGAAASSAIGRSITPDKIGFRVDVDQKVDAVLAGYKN
T1 sequence (P27355 1-169 partner): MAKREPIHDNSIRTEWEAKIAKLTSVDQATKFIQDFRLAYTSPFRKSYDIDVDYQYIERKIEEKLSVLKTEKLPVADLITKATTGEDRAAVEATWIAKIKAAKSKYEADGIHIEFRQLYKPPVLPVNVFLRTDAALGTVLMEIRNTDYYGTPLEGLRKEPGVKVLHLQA
Procedure: . Substrates were injected into the respective reaction vials as follows: gaseous substrates (3 ml) were injected into the headspace of the reaction vial; liquid substrates (50 μls) were injected directly into the protein solution. The protein solution and substrate were allowed to equilibrate for five minutes in a water bath shaker at 30° C. Each reaction was initiated by injection of H2 O2 (20 μl of 1.0 MH2 O2 in water) to a concentration of about 100 mM H2 O2. After an appropriate period (2 minutes) a portion of the reaction mixture was removed, the reaction terminated, and the sample prepared for analysis.
Samples were analyzed for products as follows: The benzene, substituted benzenes and pyridine samples were analyzed by High Pressure Liquid Chromatography (HPLC). The reaction in each sample was quenched by addition of 2 volumes of ethanol or 3% trichloroacetic acid which caused precipitation of the hydroxylase. The samples were centrifuged for two minutes (10,800×g) and the precipitated hydroxylase removed. A portion of each supernatant was injected into a Beckman HPLC equipped with a reverse-phase column (C18 matrix) and UV detection capability.
All other samples were analyzed by gas chromatography. Except for the methane sample, all analyses were performed as follows: The reaction in each sample was quenched by addition of an equal volume chloroform (CHCl3) followed by vortexing for a brief period. The sample was centrifuged for two minutes (10,800×g) to separate the CHCl3 layer from the sample solution. A portion of the CHCl3 layer was injected into a Hewlett Packard 5890A gas chromatograph (100% methylsilicone column matrix) for analysis of the products.
For the methane sample, the reaction was quenched by addition of 0.1M acid to a pH of 2.9. The resulting aqueous phase was separated from the hydroxylase using a YM30 Centricon ultrafiltration unit. The filtrate was analyzed for methanol by gas chromatography.
Products resulting from the various substrates were identified by comparison with standard compounds.

methane monooxygenase = biological target: T2, methane monooxygenase (Methylococcus capsulatus, UniProt P22869); details: Table II, purified component from Methylococcus capsulatus (Bath); cited from earlier work
T2 construct: methane monooxygenases isolated from the Type I organism, Methylococcus capsulatus (Bath); host or cells: Methylococcus capsulatus (Bath)
T2 sequence (P22869 whole entry, looked up): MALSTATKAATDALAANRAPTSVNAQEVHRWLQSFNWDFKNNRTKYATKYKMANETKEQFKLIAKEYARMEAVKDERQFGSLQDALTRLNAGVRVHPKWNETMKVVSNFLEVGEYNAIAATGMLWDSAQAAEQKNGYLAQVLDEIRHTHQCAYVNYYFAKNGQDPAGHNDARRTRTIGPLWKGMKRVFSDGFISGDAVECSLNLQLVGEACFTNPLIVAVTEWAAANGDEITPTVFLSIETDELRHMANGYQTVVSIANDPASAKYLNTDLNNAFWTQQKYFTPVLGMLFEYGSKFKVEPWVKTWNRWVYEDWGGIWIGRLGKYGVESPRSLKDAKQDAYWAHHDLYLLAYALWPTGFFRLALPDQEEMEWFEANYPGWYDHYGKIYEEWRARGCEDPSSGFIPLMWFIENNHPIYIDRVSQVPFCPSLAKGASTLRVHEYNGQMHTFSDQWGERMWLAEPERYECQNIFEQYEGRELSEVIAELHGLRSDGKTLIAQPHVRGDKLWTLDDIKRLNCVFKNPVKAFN

[2] = biological target: T3, complete methane monooxygenase (Methylosinus trichosporium, UniProt P27353); assay: Polarographic assay of methane monooxygenase activity with furan as substrate; format: biochemical, Methylosinus trichosporium OB3b
T3 construct: A soluble three-component methane monooxygenase from the Type II methanotroph Methylosinus trichosporium OB3b was purified to homogeneity; endogenous in cells; host or cells: Methylosinus trichosporium OB3b, grown on methane; components purified from cell-free extract
T3 sequence (P27353 1-526): T1 sequence (P27353 1-526)
T3 sequence (P27354 1-394 partner): T1 sequence (P27354 1-394 partner)
T3 sequence (P27355 1-169 partner): T1 sequence (P27355 1-169 partner)
Procedure: Enzyme Assays--Assays of bacterial cells were performed at 30° C. using cells harvested directly from the fermentor vessel. Methane oxidation was measured by gas chromatography by monitoring depletion of methane from the headspace of 30 ml reaction vials. Oxygen consumption was measured polarographically as described by Arciero et al. (J. Biol. Chem. 258, 14981-14991, 1983). The bacterial suspension was supplemented with 100 μM formaldehyde before gas chromatographic assays for conversion of propene to propene oxide in order to allow adequate regeneration of NADH by endogenous formaldehyde and formate dehydrogenases. Gas chromatographic and polarographic assays of the methane monooxygenase system were performed as described by Fox et al. (Biochem. Biophys. Res. Comm. 154, 165-170, 1988). Unless explicitly stated, the specific activity values reported for the enzyme components are those observed during the hydroxylation reaction in the presence of optimal concentrations of the other components of the methane monooxygenase. The optimal concentrations were determined by varying the concentration of one component relative to fixed concentrations of the other two components. In routine polarographic assays of methane monooxygenase activity, furan is an acceptable substrate with characteristics which facilitate the assay. […]

physchem = format: physicochemical; details: water, 30° C.
[3] = 90 psi propane, up to two days, t-butyl peroxide; cited from earlier work

Relative Distribution (Percent), product Ethanol [1]: 100%
Molecule: CC [Ethane]

Molecule: reductase from Methylococcus capsulatus (Bath): literature reductase, Colby et al. 1979
Specific activity (methane monooxygenase): 6000

Relative Distribution (Percent), product 1-methylcyclobutanol [1]: 14%
Relative Distribution (Percent), product 3-methyl-3-buten-1-01 [1]: none detected
Relative Distribution (Percent), product Methylcyclopropylmethanol [1]: 86%
Molecule: CC1(C)CC1 [1,1-dimethylcyclopropane]

Relative Distribution (Percent), product Methanol ([1]; about 100 mM H2O2, 2 minutes): 100%
Molecule: C [Methane]

Molecule: c1ccoc1 [furan]
Km ([2]; read-out: KM(app)): 0.02 mM
turnover number ([2]; relative to the hydroxylase): 7.6 s⁻¹
solubility (physchem): 64 mM (≈ 4360 µg/mL)

Molecule: Fe2 O(OAc)2 Cl2 (bipy)2
yield of 2-propanol from propane [3]: 8.8%

Molecule: O=[N+]([O-])c1ccccc1 [Nitrobenzene]
Relative Distribution (Percent), product m-Nitrophenol [1]: 53%
Relative Distribution (Percent), product o-Nitrophenol [1]: 5%
Relative Distribution (Percent), product p-Nitrophenol [1]: 42%

Relative Distribution (Percent), product 2-methyl-1-propanol [1]: 61%
Relative Distribution (Percent), product 2-methyl-2-propanol [1]: 39%
Molecule: CC(C)C [Isobutane]

Relative Distribution (Percent), product Propylene Oxide [1]: 100%
Molecule: C=CC [Propene]

Molecule: CCCC [Butane]
Relative Distribution (Percent), product 1-butanol [1]: 64%
Relative Distribution (Percent), product 2-butanol [1]: 36%

Relative Distribution (Percent), product 2-methyl-1-butanol [1]: 25%
Relative Distribution (Percent), product 2-methyl-2-butanol [1]: 41%
Relative Distribution (Percent), product 3-methyl-1-butanol [1]: 11%
Relative Distribution (Percent), product 3-methyl-2-butanol [1]: 24%
Molecule: CCC(C)C [Isopentane]

Molecule: c1ccccc1 [Benzene]
Relative Distribution (Percent), product Phenol [1]: 100%

Relative Distribution (Percent), product 1-propanol [1]: 15%
Relative Distribution (Percent), product 2-propanol [1]: 85%
Molecule: CCC [Propane]

Molecule: c1ccncc1 [Pyridine]
Relative Distribution (Percent), product Pyridine-N-oxide [1]: 100%
